Among the data in PubChem BioAssay (NCI) are TGI and GI50 values, retold here.

The structures appear in SMILES notation.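 Assay format: 96-well plates, 48-hour exposure. Abbreviation: GI50, concentration required for 50% inhibition of growth. TGI: concentration producing complete growth inhibition.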 A value given as a limit tells only on which side of the number the result lay.

Test systems include A549 NSCLC; EKVX NSCLC; HL-60(TB) leukemia; HOP-62 NSCLC; LOX IMVI melanoma; SK-MEL-2 melanoma; SK-MEL-5 melanoma; SNB-75 CNS; UO-31 renal; XF 498 CNS.
Common to all, as to test: NCI tumour cell line growth inhibition, 48 h

As to `Cc1cccc(C(C)C)c1NC(=O)C(=O)CC(=O)c1c(C)n([O-])c2ccccc2[n+]1=O`, the TGI with A549 NSCLC was more than 100 µM; in the assay with EKVX NSCLC it was more than 100 µM; in the assay with HL-60(TB) leukemia it was more than 100 µM; with HOP-62 NSCLC, more than 100 µM; in the assay with LOX IMVI melanoma, more than 100 µM; with SK-MEL-2 melanoma it was 98.1 µM. The TGI in the assay with SK-MEL-5 melanoma was more than 100 µM; in the assay with SNB-75 CNS it was 71.1 µM; with UO-31 renal it was more than 100 µM.
`Fc1cccc(COc2ccc(Nc3ncnc4cc(-c5ccc[nH]5)sc34)cc2Cl)c1`: the GI50 in the assay with A549 NSCLC is 0.789 µM; with EKVX NSCLC, 0.323 µM; in the assay with HL-60(TB) leukemia it was 0.354 µM; with HOP-62 NSCLC it was 3.01 µM; with LOX IMVI melanoma it was 8.04 µM; in the assay on SK-MEL-2 melanoma it was 6.77 µM. In addition, the figures for the GI50 in the assay on SK-MEL-5 melanoma, in the assay with SNB-75 CNS and in the assay with UO-31 renal were 6.01 µM, 1.19 µM and 0.245 µM, respectively. In addition, the TGI in the assay with A549 NSCLC is 4.8 µM; in the assay on EKVX NSCLC it was 3.75 µM; in the assay on HL-60(TB) leukemia, 3.22 µM; with HOP-62 NSCLC it was 8.52 µM; in the assay on LOX IMVI melanoma it was more than 22.4 µM; in the assay with SK-MEL-2 melanoma, more than 25 µM. Besides, the TGI is more than 25 µM in the assay with SK-MEL-5 melanoma, 6.35 µM in the assay on SNB-75 CNS and 2.52 µM in the assay with UO-31 renal.
Take `O=C1/C(=C/c2ccc(O)cc2)COc2ccc(-c3ccccc3)cc21`: the GI50 in the assay with A549 NSCLC was 13.2 µM; in the assay with EKVX NSCLC, 13.4 µM; in the assay with HL-60(TB) leukemia it was 0.465 µM; with HOP-62 NSCLC, 19.3 µM; in the assay with LOX IMVI melanoma, 3.54 µM; with SK-MEL-2 melanoma, 16.8 µM. For the same compound, the figures for the GI50 with SK-MEL-5 melanoma, in the assay with SNB-75 CNS and with UO-31 renal were 8.67 µM, 5.17 µM and 4.64 µM, respectively. The TGI in the assay on A549 NSCLC was 49.6 µM; with EKVX NSCLC, 32.1 µM; with HL-60(TB) leukemia it was more than 38.2 µM; in the assay on HOP-62 NSCLC, 36.4 µM; in the assay with LOX IMVI melanoma, 13.3 µM; in the assay on SK-MEL-2 melanoma it was 39 µM. The figures for the TGI with SK-MEL-5 melanoma, in the assay with SNB-75 CNS and in the assay with UO-31 renal were 22.9 µM, 15.5 µM and 23.4 µM, respectively.
On to `COc1cccc(C2c3cc4c(cc3OC(O)(CO)C2C(=O)O)OCO4)c1` (stereo not given) (tested in a mixture with another compound), for which the TGI with A549 NSCLC is more than 100 µM; with EKVX NSCLC, more than 100 µM; with HL-60(TB) leukemia, 75.4 µM; in the assay with HOP-62 NSCLC, more than 100 µM; in the assay on LOX IMVI melanoma it was more than 100 µM; in the assay on SK-MEL-2 melanoma, more than 100 µM. Besides, the TGI in the assay with SK-MEL-5 melanoma is more than 100 µM; in the assay with SNB-75 CNS it was 54 µM; in the assay with UO-31 renal, more than 100 µM.
Consider `S=c1[nH]c2ccc(Br)cc2c(=S)n1-c1ccccc1`, for which the TGI in the assay with A549 NSCLC is more than 100 µM; in the assay on EKVX NSCLC it was more than 100 µM; with HOP-62 NSCLC it was 47 µM; in the assay with LOX IMVI melanoma it was 85.1 µM; with SK-MEL-2 melanoma, 43.7 µM; in the assay with SK-MEL-5 melanoma, 35.5 µM. The results for the TGI in the assay on SNB-75 CNS, in the assay with UO-31 renal and in the assay on XF 498 CNS were 79.1 µM, 59 µM and 36.6 µM, respectively.
Turning to `CN(C)CCOc1ccc2c(c1)C/C(=C/c1ncc([N+](=O)[O-])n1C)C2=O`, the TGI in the assay on A549 NSCLC turned out to be 7.74 µM; in the assay with EKVX NSCLC, 18 µM; in the assay with HL-60(TB) leukemia, 71.7 µM; in the assay on HOP-62 NSCLC, 11.4 µM; with LOX IMVI melanoma it was 14.4 µM; in the assay with SK-MEL-2 melanoma, 3.58 µM. In addition, the TGI is 3.49 µM in the assay on SK-MEL-5 melanoma, 7.54 µM in the assay with SNB-75 CNS and 3.61 µM in the assay with UO-31 renal.
For `CC1OC2CC(=O)OC2C2=C1C(=O)c1c(O)c3c(c(O)c1C2=O)C1CC(O)C3(O)C(C)O1` (stereo not given), the GI50 with A549 NSCLC is 0.869 µM; with EKVX NSCLC, 0.534 µM; in the assay on HL-60(TB) leukemia, 0.234 µM; in the assay with HOP-62 NSCLC, 0.826 µM; with LOX IMVI melanoma, 0.104 µM; in the assay with SK-MEL-2 melanoma, 0.701 µM. Moreover, the GI50 in the assay on SK-MEL-5 melanoma was 1.23 µM; in the assay with SNB-75 CNS, 1.59 µM; in the assay with UO-31 renal, 0.3 µM. The TGI with A549 NSCLC was determined as 7.74 µM; in the assay on EKVX NSCLC it was 1.8 µM; in the assay on HL-60(TB) leukemia it was 1.06 µM; in the assay with HOP-62 NSCLC, 2.8 µM; in the assay on LOX IMVI melanoma, 0.476 µM; in the assay with SK-MEL-2 melanoma, 2.26 µM. Moreover, the TGI came to 2.5 µM in the assay on SK-MEL-5 melanoma, 3.64 µM in the assay with SNB-75 CNS and 1.53 µM with UO-31 renal.
Turning to `COc1ccc2c3c(c(=O)n(C)c2c1OC)C=CC(C)(C)O3`, the TGI in the assay on A549 NSCLC is more than 100 µM; in the assay with EKVX NSCLC, more than 100 µM; in the assay on HL-60(TB) leukemia, 29.8 µM; in the assay with HOP-62 NSCLC, more than 100 µM; in the assay with LOX IMVI melanoma it was more than 100 µM; in the assay with SK-MEL-2 melanoma, more than 100 µM. Further, the figures for the TGI in the assay on SK-MEL-5 melanoma, with SNB-75 CNS and in the assay with UO-31 renal were 30.1 µM, 48.2 µM and 63.3 µM, respectively.
On to `CC(C)NC(=O)OCCS(=O)c1c(Cl)c(Cl)nn1C` (stereo not given), for which the TGI in the assay with A549 NSCLC, with EKVX NSCLC, with HL-60(TB) leukemia, with HOP-62 NSCLC, in the assay on LOX IMVI melanoma and with SK-MEL-2 melanoma was more than 100 µM in each case. Besides, the TGI in the assay on SK-MEL-5 melanoma, in the assay on SNB-75 CNS and in the assay on UO-31 renal was more than 100 µM in each case.
Turning to `Cn1ccnc1C(=O)/C=C/c1ccc(CC(=O)Nc2ccccc2)cc1`, the GI50 in the assay on A549 NSCLC was 6.6 µM; in the assay with EKVX NSCLC it was 6.28 µM; in the assay with HL-60(TB) leukemia it was 1.57 µM; with HOP-62 NSCLC, 3.75 µM; in the assay with LOX IMVI melanoma it was 1.03 µM; in the assay with SK-MEL-2 melanoma it was 5.06 µM. The GI50 is 4.18 µM with SK-MEL-5 melanoma, more than 25 µM in the assay on SNB-75 CNS and 2.77 µM in the assay on UO-31 renal. Further, the TGI was more than 25 µM with A549 NSCLC; more than 25 µM in the assay on EKVX NSCLC; 9.35 µM in the assay with HL-60(TB) leukemia; 20.8 µM in the assay with HOP-62 NSCLC; 4.27 µM in the assay on LOX IMVI melanoma; 13.3 µM in the assay with SK-MEL-2 melanoma. The TGI with SK-MEL-5 melanoma was 7.9 µM; with SNB-75 CNS it was more than 25 µM; in the assay on UO-31 renal, 5.86 µM.
Consider `O=C(O)c1cc(=O)c2[nH]c3ccccc3c2s1`, for which the TGI in the assay on A549 NSCLC, with EKVX NSCLC, with HL-60(TB) leukemia, in the assay on HOP-62 NSCLC, in the assay on SK-MEL-2 melanoma and in the assay on SK-MEL-5 melanoma was more than 100 µM throughout. For the same compound, the TGI in the assay on SNB-75 CNS, in the assay on UO-31 renal and in the assay on XF 498 CNS was more than 100 µM each time.
